Where “and” joins values, the source holds several entries; their conditions need not be identical. Equal entries are not always repeated. Where two headings read alike, the source gives them in different places.
Experiments:
[1] = in vitro; assay type: cell-based; settings: mouse
Method: […]. Accordingly, in the present work, we paid special attention to the study of the cytotoxic activity of compounds on primary cultures of mouse hepatocytes using standard MTT methodology.
The cytotoxicity of the compounds was evaluated using a primary culture of mouse hepatocytes isolated at the Center for Biotechnology and Bioengineering, Ural Federal University, Ekaterinburg, Russia, according to the standard method. Cells were seeded in 96-well plates in the inoculum dose of 1 × 10^4 cells/mL and cultured for 24 h in Dulbecco’s Modified Eagle Medium (DMEM), with 1% (w/v) glutamine in the presence of 10% (v/v) fetal bovine serum and gentamicin (50 mg/L) at 37 °C, with a humidified atmosphere of 5% (v/v) CO2. Cell viability was assessed using the standard MTT assay. The compounds were dissolved in DMSO and then in a nutrient medium, after which they were added to the wells with cells at final concentrations of 10^−7, 10^−6, 10^−5, and 10^−4 M. Hepatocytes were exposed to test compounds for 24 h at 37 °C, 95% relative humidity and 5% (v/v) CO2 atmosphere. After incubation, the medium was replaced with 100 μL of fresh medium containing MTT (0.5 mg/mL). The plates were then incubated at 37°C in a CO2 incubator for 2 h. Then the medium with MTT was removed and DMSO was added to dissolve the formazan crystals.
The results of the MTT assay were evaluated on a Tecan Infinite M200 PRO (Tecan Austria GmbH, Grödig, Austria) plate spectrophotometer at 570 nm by comparing the optical density of a formazan solution in the assay and control wells. The cell viability was expressed as the percentage of untreated control. The results were obtained from three independent experiments performed in six replicates. The IC50 (μM) values were calculated by the AAT Bioquest-calculator: (https://www.aatbio.com/tools/ic50-calculator, accessed on 1 December 2022) and expressed as a mean ± standard error of the mean (SEM). Statistical analysis was carried out using Microsoft Excel 2007 (Microsoft Corporation, Redmond, WA, USA) and Statistica 2009 (Tulsa, OK, USA) programs.

[2] = ethanol, difference spectra, two bands, cited from earlier work
[3] = ethanol, difference spectra, two bands, cited from earlier work; remark: listed apart in the source
[4] = ABTS radical cation scavenging assay; parameters: key to ABTS^•+ Scavenging Activity, TEAC: TEAC: ratio of compound slope to Trolox slope (Trolox equivalents); settings: 1 h incubation; for IC50: 50% reduction of ABTS radical cation; for ABTS^•+ Scavenging Activity, TEAC: Trolox equivalent, n.a. = not active
Method: In the ABTS assay, the dark-green ABTS cation-radical (ABTS^•+) is quenched by interaction with AOs. The consequent decrease in absorbance is followed spectrophotometrically per the previously described method.
Radical scavenging activity of the compounds was assessed using the ABTS radical cation (ABTS^•+) decolorization assay with some modifications. ABTS (2,2′-azinobis-(3-ethylbenzothiazoline-6-sulfonic acid) was purchased from Tokyo Chemical Industry Co., Ltd. (Tokyo, Japan); potassium persulfate (dipotassium peroxodisulfate), Trolox (6-hydroxy-2,5,7,8-tetramethylchroman-2-carboxylic acid), and HPLC-grade ethanol and DMSO were obtained from Sigma-Aldrich (Saint Louis, MO, USA). Aqueous solutions were prepared using deionized water. All tested compounds were dissolved in DMSO.
The solution of cation radical ABTS^•+ was produced by incubation of an aqueous solution of 7 mM ABTS and 2.45 mM potassium persulfate solution in equal quantities for 12–16 h at room temperature in the dark. Radical scavenging capacity of the compounds was analyzed by mixing 10 μL of compound with 240 μL of ABTS^•+ working solution in ethanol (100 μM final concentration). The reaction was monitored for an hour at 30 °C with an interval of 10 min. Data are given for 1 h of incubation of compounds with ABTS^•+. The reduction in absorbance was measured spectrophotometrically at 734 nm using an xMark microplate UV/VIS spectrophotometer (Bio-Rad, Hercules, CA, USA). Ethanol blanks were run in each assay. Values were obtained from five replicates of each sample and three independent experiments.
The standard AO Trolox was used as a reference compound. AO capacity as Trolox equivalent (TEAC) values was determined as the ratio between the slopes obtained from the linear correlation of the ABTS radical absorbance with the concentrations of tested compounds and Trolox. Ascorbic acid was used as a positive control. […]. The compounds were tested in the concentration range of 0.5–100 µM.

[5] = molecular target: T1, eqBChE (Equus caballus, UniProt P81908); assay: Kinetic study of BChE inhibition (Lineweaver-Burk); assay type: biochemical; settings: for αKi (non-competitive inhibition constant), eqBChE: mixed-type inhibition, mean ± SEM; for Ki: read-out: Ki (competitive inhibition constant), eqBChE
T1 construct: human erythrocyte AChE, equine serum BChE, and porcine liver CES were used; purchased Sigma-Aldrich; host or cells: equine serum (tissue-derived)
T1 sequence (P81908 whole entry): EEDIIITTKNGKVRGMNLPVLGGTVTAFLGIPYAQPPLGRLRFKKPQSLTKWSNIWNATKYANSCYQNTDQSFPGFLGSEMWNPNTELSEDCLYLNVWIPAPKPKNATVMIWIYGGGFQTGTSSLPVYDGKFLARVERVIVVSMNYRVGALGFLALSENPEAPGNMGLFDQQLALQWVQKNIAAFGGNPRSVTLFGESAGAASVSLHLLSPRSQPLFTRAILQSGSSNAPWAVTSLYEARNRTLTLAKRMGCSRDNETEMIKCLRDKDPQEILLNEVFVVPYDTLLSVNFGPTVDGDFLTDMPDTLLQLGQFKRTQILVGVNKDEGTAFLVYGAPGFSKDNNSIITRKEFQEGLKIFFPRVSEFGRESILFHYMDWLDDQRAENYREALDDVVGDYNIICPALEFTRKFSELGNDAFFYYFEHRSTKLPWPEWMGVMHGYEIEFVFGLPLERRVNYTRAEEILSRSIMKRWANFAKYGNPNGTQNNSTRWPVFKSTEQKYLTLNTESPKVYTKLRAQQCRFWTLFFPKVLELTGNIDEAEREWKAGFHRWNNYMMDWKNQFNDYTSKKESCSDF
Method: Similar results were obtained for other tested compounds (Figures S61 and S62). The obtained values of inhibition constants (Ki = competitive component and αKi = non-competitive component) are shown in Table 2.
(§1) We assessed the mechanisms of AChE and BChE inhibition by performing a thorough analysis of enzyme kinetics. After a 5 min incubation at 25 °C (for temperature equilibration) with three increasing concentrations of inhibitor and six decreasing substrate concentrations, the residual enzyme activity was measured as described above for enzymatic assays.

[6] = molecular target: T2, AChE (Homo sapiens, UniProt P22303); assay: Kinetic study of AChE inhibition (Lineweaver-Burk); assay type: biochemical; settings: for αKi (non-competitive inhibition constant), AChE: mixed-type inhibition, mean ± SEM; for Ki: read-out: Ki (competitive inhibition constant), AChE
T2 construct: human erythrocyte AChE, equine serum BChE, and porcine liver CES were used; purchased Sigma-Aldrich; host or cells: human erythrocytes (tissue-derived)
T2 sequence (P22303 32-617 isoform P22303-2 limits assumed): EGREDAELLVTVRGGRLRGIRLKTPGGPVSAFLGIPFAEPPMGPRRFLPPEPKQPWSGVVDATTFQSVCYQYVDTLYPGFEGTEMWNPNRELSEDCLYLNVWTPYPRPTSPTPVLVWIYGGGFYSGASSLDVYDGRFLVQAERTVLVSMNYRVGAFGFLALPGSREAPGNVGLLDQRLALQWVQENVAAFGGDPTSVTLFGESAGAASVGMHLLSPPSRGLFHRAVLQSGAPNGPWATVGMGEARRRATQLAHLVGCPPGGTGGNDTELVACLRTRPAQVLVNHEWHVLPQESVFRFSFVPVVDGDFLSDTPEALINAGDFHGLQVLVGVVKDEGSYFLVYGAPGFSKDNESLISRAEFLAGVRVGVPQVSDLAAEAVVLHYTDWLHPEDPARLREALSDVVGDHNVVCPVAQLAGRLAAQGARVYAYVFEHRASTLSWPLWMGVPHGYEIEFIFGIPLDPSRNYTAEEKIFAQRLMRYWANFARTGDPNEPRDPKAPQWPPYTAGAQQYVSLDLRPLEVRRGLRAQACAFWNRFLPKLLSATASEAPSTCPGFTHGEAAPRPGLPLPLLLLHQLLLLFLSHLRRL
Method: as §1

[7] = FRAP assay; settings: Trolox equivalents; 60 min, 37 °C; n.a. = not active
Method: The Ferric Reducing Antioxidant Power (FRAP) test involves reduction of the ferric 2,4,6-tripyridyl-s-triazine complex [Fe(TPTZ)2]^3+ to an intense-blue ferrous complex [Fe(TPTZ)2]^2+ [92], as previously reported. Results are given as Trolox Equivalents (TE).
The FRAP (ferric reducing antioxidant power) assay proposed by Benzie and Strain [92] was modified to be performed in 96-well microplates as described in detail in [53]. The FRAP reagent contained 2.5 mL of 10 mM TPTZ (2,4,6-tris(2-pyridyl)-s-triazine, Sigma-Aldrich) solution in 40 mM HCl, 2.5 mL of 20 mM FeCl3 (Sigma-Aldrich) in distilled water and 25 mL of 0.3 M acetate buffer (pH 3.6). Aliquots of 10 µL of the test compound dissolved in DMSO (0.5 mM) were placed in quadruplicate. Absorbance was measured at a wavelength of 593 nm after 60 min incubation at 37 °C. In each case, Trolox was used as a reference compound to obtain the standard curve. The AO activity was calculated with respect to the activity of Trolox and expressed as Trolox equivalents (TE)—the values calculated as the ratio of the concentrations of Trolox and the test compound resulting in the same effect on ferric reducing activity.

[8] = absorption band at 337, 323, 308 nm

O=C(NCCCCCCNc1c2c(nc3ccccc13)CCCC2)c1ccccc1O [5b]
IC50 at 24 h [1]: 4.89 ± 0.08 µM | Shift of Absorbance, Fe(II) ([2]; absorption band at 237 nm): 254 nm | Shift of Absorbance, Fe(II) [2, 8]: 351 nm | Shift of Absorbance, Zn(II) ([3]; absorption band at 237 nm): 254 nm | Shift of Absorbance, Zn(II) [3, 8]: 351 nm | IC50 [4]: 21.3 ± 1.5 µM | ABTS^•+ Scavenging Activity, TEAC [4]: 0.93 and 0.90 ± 0.05

Oc1ccccc1/C=N/CCCCCCCCNc1c2c(nc3ccccc13)CCCC2 [10c]
IC50 at 24 h [1]: 5.87 ± 0.14 µM | Type of BChE inhibition ([5]; Lineweaver–Burk analysis): mixed type of inhibition | αKi (non-competitive inhibition constant), eqBChE [5]: 0.0152 ± 0.0009 µM | Ki [5]: 0.0084 ± 0.0006 µM | Type of AChE inhibition ([6]; Lineweaver–Burk analysis): mixed type of inhibition | αKi (non-competitive inhibition constant), AChE [6]: 0.0644 ± 0.0040 µM | Ki [6]: 0.0299 ± 0.0021 µM | IC50 [4]: 34.2 ± 1.8 µM | ABTS^•+ Scavenging Activity, TEAC [4]: 0.42 ± 0.04

O=C(NCCCCCCCCNc1c2c(nc3ccccc13)CCCC2)c1cc(F)c(F)cc1O [7c]
αKi (non-competitive inhibition constant), eqBChE [5]: 0.0243 ± 0.0001 µM | Ki [5]: 0.0173 ± 0.0006 µM | αKi (non-competitive inhibition constant), AChE [6]: 0.134 ± 0.009 µM | Ki [6]: 0.125 ± 0.003 µM | FRAP, TE [7]: 0.06 | IC50 [4]: > 200 µM | ABTS^•+ Scavenging Activity, TEAC [4]: 0.040 ± 0.002

O=C(NCCCCCCNc1c2c(nc3ccccc13)CCCC2)c1cc(F)c(F)cc1O [7b]
IC50 at 24 h [1]: 15.16 ± 0.09 µM | FRAP, TE [7]: 0.03 | IC50 [4]: > 200 µM | ABTS^•+ Scavenging Activity, TEAC [4]: 0.030 ± 0.001

Reference: publication PMC9916969 (International Journal of Molecular Sciences, 2023)
